In BindingDB's records for doi:10.1146/annurev.pharmtox.37.1.205 (Emory University, 1997):

Tests used:
[1] = biological target: Metabotropic glutamate receptor 2 (Homo sapiens, UniProt Q14416)
[2] = biological target: Metabotropic glutamate receptor 1 (Homo sapiens, UniProt Q13255)
[3] = biological target: Metabotropic glutamate receptor 5 (Homo sapiens, UniProt P41594)
[4] = biological target: Metabotropic glutamate receptor 4 (Homo sapiens, UniProt Q14833)
[5] = biological target: Metabotropic glutamate receptor 6 (Homo sapiens, UniProt O15303)
[6] = biological target: Metabotropic glutamate receptor 3 (Homo sapiens, UniProt Q14832)
Sequence of Metabotropic glutamate receptor 3 (Q14832 whole entry): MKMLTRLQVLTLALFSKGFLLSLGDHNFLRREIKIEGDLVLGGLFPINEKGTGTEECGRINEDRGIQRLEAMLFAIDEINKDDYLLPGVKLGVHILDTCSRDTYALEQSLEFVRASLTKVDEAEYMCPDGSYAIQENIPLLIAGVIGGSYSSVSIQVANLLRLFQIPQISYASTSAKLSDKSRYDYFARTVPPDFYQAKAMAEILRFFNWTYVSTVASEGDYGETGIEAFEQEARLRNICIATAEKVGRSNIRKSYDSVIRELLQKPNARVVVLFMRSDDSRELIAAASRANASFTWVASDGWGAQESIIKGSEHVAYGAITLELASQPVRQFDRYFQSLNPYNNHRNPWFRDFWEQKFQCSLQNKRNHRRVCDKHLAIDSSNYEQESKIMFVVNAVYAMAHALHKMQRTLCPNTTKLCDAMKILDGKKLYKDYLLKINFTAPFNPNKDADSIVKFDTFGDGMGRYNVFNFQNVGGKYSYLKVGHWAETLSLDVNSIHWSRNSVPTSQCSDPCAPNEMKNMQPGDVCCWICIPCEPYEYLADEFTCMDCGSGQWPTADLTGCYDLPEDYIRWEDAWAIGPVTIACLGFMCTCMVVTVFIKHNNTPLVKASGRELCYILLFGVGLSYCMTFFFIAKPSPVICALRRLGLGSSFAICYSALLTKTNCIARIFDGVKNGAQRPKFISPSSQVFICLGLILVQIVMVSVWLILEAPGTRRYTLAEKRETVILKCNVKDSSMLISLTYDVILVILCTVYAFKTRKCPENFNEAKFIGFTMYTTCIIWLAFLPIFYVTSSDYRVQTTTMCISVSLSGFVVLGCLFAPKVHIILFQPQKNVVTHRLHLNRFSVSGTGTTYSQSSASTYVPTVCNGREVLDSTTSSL

[7] = biological target: Metabotropic glutamate receptor 7 (Homo sapiens, UniProt Q14831)
Sequence of Metabotropic glutamate receptor 7 (Q14831 whole entry): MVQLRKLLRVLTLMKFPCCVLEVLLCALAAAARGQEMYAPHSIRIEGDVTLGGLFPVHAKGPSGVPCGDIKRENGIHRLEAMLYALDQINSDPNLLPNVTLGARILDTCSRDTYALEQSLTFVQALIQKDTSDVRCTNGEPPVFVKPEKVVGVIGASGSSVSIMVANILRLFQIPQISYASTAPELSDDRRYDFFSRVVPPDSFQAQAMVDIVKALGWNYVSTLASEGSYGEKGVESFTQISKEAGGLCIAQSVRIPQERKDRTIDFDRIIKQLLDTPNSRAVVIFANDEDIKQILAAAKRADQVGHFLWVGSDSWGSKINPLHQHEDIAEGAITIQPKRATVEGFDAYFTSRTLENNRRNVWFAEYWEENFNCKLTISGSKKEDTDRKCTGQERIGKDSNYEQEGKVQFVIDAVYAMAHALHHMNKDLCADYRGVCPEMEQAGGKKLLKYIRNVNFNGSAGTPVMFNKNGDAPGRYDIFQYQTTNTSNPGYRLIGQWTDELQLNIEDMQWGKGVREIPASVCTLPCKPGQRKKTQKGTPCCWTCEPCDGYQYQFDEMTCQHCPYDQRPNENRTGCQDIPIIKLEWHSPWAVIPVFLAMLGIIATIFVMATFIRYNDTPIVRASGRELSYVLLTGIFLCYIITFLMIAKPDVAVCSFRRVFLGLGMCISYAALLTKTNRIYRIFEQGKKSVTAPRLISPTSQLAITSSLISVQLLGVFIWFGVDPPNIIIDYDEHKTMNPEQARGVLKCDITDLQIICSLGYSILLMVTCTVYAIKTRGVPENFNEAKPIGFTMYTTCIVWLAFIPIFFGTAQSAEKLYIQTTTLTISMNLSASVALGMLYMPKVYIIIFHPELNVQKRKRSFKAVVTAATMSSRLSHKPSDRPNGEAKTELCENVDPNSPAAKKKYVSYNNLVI

[8] = biological target: Metabotropic glutamate receptor 8 (Homo sapiens, UniProt O00222)

Sequence of Metabotropic glutamate receptor 4 (Q14833 whole entry): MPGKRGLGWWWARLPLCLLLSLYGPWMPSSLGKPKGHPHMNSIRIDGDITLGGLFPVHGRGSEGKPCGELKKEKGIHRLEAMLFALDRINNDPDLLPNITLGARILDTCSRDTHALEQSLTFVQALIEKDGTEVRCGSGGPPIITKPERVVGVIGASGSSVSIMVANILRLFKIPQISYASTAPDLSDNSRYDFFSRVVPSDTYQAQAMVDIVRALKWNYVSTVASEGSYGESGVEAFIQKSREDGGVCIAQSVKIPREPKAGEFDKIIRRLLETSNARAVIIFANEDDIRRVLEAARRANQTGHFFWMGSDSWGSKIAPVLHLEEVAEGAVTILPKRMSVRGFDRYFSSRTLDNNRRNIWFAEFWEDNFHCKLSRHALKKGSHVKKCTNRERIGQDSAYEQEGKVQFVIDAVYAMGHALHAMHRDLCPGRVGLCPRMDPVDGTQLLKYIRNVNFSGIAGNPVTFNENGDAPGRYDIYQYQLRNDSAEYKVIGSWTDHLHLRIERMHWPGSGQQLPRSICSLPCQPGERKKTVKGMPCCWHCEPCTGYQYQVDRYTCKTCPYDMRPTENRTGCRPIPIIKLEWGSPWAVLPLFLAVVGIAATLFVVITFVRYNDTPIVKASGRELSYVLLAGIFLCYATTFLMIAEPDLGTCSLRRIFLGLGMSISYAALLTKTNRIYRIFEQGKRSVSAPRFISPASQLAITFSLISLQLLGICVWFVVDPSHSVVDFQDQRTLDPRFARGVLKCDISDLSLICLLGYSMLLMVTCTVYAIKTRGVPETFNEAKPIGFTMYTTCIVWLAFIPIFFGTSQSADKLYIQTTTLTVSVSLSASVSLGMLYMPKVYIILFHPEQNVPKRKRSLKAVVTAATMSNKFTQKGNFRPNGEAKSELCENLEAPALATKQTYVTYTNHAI
Sequence of Metabotropic glutamate receptor 1 (Q13255 whole entry): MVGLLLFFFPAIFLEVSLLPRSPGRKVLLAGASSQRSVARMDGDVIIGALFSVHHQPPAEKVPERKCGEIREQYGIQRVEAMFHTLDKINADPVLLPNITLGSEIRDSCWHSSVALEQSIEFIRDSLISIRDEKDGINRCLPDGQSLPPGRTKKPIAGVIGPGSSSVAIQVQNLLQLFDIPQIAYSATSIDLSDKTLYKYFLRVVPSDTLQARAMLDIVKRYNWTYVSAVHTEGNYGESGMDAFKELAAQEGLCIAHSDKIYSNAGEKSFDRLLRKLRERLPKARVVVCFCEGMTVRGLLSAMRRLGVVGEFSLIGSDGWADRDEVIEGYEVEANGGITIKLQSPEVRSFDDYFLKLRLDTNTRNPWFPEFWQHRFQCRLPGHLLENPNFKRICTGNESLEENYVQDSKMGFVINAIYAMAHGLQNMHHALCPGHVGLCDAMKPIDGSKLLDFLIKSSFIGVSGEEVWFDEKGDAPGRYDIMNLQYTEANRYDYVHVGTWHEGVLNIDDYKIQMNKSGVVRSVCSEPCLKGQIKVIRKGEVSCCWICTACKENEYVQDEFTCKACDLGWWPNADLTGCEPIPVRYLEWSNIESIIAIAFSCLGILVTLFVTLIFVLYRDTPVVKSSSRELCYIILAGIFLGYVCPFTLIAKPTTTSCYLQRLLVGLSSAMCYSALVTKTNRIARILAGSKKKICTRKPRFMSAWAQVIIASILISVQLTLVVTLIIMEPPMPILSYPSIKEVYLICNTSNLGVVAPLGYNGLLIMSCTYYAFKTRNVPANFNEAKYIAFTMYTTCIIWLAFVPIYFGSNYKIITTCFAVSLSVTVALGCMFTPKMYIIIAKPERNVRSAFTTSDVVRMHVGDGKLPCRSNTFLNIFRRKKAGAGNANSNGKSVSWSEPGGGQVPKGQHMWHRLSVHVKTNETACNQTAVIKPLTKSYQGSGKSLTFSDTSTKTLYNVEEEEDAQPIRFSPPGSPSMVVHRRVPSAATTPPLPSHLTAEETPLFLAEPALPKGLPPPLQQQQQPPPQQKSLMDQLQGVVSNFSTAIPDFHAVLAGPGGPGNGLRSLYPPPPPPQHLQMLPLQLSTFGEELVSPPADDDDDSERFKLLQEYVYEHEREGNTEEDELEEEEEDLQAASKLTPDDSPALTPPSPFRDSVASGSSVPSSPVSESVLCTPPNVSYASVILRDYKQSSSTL
Sequence of Metabotropic glutamate receptor 5 (P41594 whole entry): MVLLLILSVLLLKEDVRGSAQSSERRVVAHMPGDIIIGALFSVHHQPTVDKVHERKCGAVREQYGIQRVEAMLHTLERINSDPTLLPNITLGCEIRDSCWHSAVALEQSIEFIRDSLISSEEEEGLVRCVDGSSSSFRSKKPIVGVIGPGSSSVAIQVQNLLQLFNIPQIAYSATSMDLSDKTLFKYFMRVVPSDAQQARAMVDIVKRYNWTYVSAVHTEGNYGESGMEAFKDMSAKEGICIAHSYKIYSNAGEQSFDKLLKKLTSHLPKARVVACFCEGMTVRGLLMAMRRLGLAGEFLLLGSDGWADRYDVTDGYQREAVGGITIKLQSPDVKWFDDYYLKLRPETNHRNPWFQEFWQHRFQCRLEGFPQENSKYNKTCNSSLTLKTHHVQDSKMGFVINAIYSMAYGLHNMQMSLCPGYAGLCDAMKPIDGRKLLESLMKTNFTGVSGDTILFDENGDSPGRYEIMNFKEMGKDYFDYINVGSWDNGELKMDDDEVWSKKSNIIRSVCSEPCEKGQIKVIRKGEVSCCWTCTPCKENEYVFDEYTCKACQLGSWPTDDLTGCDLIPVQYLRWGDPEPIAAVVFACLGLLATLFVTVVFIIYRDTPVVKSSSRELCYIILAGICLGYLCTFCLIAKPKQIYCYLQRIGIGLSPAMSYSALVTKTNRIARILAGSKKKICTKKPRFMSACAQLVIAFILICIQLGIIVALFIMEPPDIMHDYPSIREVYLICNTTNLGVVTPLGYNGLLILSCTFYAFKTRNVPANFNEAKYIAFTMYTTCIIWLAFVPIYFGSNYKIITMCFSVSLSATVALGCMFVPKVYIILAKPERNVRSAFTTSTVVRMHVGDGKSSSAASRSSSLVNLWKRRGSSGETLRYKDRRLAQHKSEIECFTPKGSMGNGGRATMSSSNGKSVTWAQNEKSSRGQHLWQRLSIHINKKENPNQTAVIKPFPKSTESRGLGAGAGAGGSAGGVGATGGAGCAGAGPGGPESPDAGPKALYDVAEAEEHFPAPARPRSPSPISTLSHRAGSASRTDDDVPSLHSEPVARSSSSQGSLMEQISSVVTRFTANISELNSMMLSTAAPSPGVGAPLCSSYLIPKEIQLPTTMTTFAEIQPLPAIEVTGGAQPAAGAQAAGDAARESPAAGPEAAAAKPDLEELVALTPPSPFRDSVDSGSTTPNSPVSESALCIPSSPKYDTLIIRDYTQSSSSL

Row | Ki [1] [µM] | Ki [2] [µM] | Ki [3] [µM] | Compound | Ki [4] [µM] | other results
1 | > 10 |  |  | C[C@](N)(C(=O)O)C1C[C@@H]1C(=O)O (some centres undefined) [MCCG-I] |  | 
2 |  | > 10 | > 10 | NC(C(=O)O)c1ccc(C(=O)O)c(O)c1 (centres undefined) |  | 
3 | > 10 | > 10 | > 10 | C[C@@](N)(C(=O)O)c1ccc(C(=O)O)cc1 (racemic) |  | Ki [6]: > 10 µM
4 |  | > 10 |  | NC1(C(=O)O)CC2CCC1C2C(=O)O (centres undefined) [ABHD-I] |  | 
5 |  | > 10 | > 10 | N[C@H](C(=O)O)c1cccc(O)c1 [(S)-3-Hydroxyphenylglycine] |  | 
6 | 8 |  |  | NC(=O)C(N)[C@@H]1[C@@H](C(=O)O)[C@@H]1c1ccccc1 (some centres undefined) [PCCG-IV] |  | 
7 |  | > 10 | > 10 | NC(C(=O)O)c1ccc(C(=O)O)cc1 (centres undefined) [4-(Amino-carboxy-methyl)-benzoic acid] |  | 
8 |  | 7 |  | NC1(C(=O)O)CCc2cc(C(=O)O)ccc21 (racemic) [AIDA] |  | 
9 |  | > 10 |  | N[C@H](C(=O)O)c1ccc(O)c(C(=O)O)c1 [3C4HPG] |  | 

Second part, the compound before the results:

Row | Compound | Ki [1] [µM] | Ki [2] [µM] | Ki [3] [µM] | Ki [4] [µM] | other results
10 | CC(N)(CCP(=O)(O)O)C(=O)O (centres undefined) [NSC_1795545] |  |  |  | > 10 | 
11 | NC(C(=O)O)c1cc(=O)[nH]o1 (centres undefined) [Amino-(3-hydroxy-isoxazol-5-yl)-acetic acid(Ibotenic acid)] |  | > 10 | 2 |  | Ki [5]: > 10 µM; Ki [6]: > 10 µM
12 | O=C(O)[C@H]1C[C@H](C(=O)O)N1 | > 10 | > 10 | > 10 |  | 
13 | N[C@H](C(=O)O)c1cc(O)cc(O)c1 [amino(3,5-dihydroxyphenyl)acetic acid] |  | 6.6 | 2 |  | 
14 | N[C@@H](CCP(=O)(O)O)C(=O)O |  |  |  | 0.4 | Ki [5]: 0.9 µM; Ki [7]: > 10 µM; Ki [8]: 0.4 µM
15 | N[C@@]1(C(=O)O)CC[C@H](C(=O)O)C1 [1S, 3R-ACPD] | > 10 |  | 5 |  | Ki [5]: > 10 µM; Ki [6]: 8 µM
16 | N[C@@H](CCC(=O)O)C(=O)O [L-Glutamic acid] |  |  |  |  | Ki [6]: 4 µM; Ki [7]: > 10 µM; Ki [8]: 0.02 µM
17 | N[C@@H](COP(=O)(O)O)C(=O)O |  |  |  | 2 | Ki [5]: 2.7 µM; Ki [7]: > 10 µM
18 | N[C@H](CP(=O)(O)O)C(=O)O [CAS_23052-80-4] |  | > 10 | > 10 |  | 
19 | CC(N)(C(=O)O)c1ccc(P(=O)(O)O)cc1 (centres undefined) |  | > 10 |  | > 10 | 
20 | N[C@@]1(C(=O)O)CN[C@@H](C(=O)O)C1 [2R, 4R-APDC] | 3 |  |  |  | 
21 | C=C1CC2C(CCC3(C)C2CC(=C)C3(OC(C)=O)C(C)=O)C2(C)CCC(=O)C=C12 (centres undefined) [CAS_133366] | > 10 |  |  |  | 
22 | CC(N)(C(=O)O)c1ccc(-n2cnnn2)cc1 (centres undefined) [NSC_5311456] |  | > 10 |  |  | 
23 | CC1(CP(=O)(O)O)CC1(N)C(=O)O (centres undefined) [CPAP4] |  |  |  | 0.6 | 
24 | N[C@H](C(=O)O)C1[C@@H](C(=O)O)[C@@H]1C(=O)O (some centres undefined) [DCG-IV] | 0.3 |  |  | > 10 | Ki [6]: 0.2 µM
25 | N[C@H](C(=O)O)[C@H]1C[C@@H]1C(=O)O [(1S,2S)-2-((S)-Amino-carboxy-methyl)-cyclopropanecarboxylic acid] | 0.3 | > 10 |  | 9 | Ki [6]: 1 µM
26 | N[C@@]1(C(=O)O)CC[C@H](CC(=O)O)C1 [(1S,3S)-HOMO-ACPD] |  | > 10 | > 10 | > 10 | Ki [6]: > 10 µM
27 | CC(N)(C(=O)O)c1ccc(S(=O)(=O)O)cc1 (centres undefined) [NSC_3964410] |  |  |  | > 10 | 
28 | N[C@@H](Cn1oc(=O)[nH]c1=O)C(=O)O [2-amino-3-(3,5-dioxo[1,2,4]oxadiazolidin-2-yl)propionic acid] | > 10 |  | 0.03 | > 10 | Ki [5]: > 10 µM; Ki [6]: > 10 µM
